# Measurements as given in the RepoRT retention time repository (doi:10.1016/j.jhazmat.2019.121712).
# Test: Thermo Scientific Acclaim RSLC 120 C18, 100 × 2.1 mm, 2.2 µm, 30 °C; A: 90% water + 10% methanol + 0.01% formic acid + 5 mM ammonium formate; B: methanol + 0.01% formic acid + 5 mM ammonium formate; gradient (min/%B) 0.1/1 3/39 14/99.9 16/99.9
# Conditions: stereoisomer not certain
row,LC retention time [min],Compound
1,5.83,Cc1ccc2n[nH]nc2c1
2,8.25,COC(=O)Nc1nc2ccc(C(=O)c3ccccc3)cc2[nH]1
3,7.76,CC(C)c1ccc(NC(N)=O)cc1
4,3.91,CC(C)(C)NCC(O)COc1cccc2c1CCC(=O)N2 (centres undefined)
5,5.42,CN1Cc2c(N)cccc2C(c2ccccc2)C1 (centres undefined)
6,9.56,CC12CCC3c4ccc(O)cc4CCC3C1CCC2=O (centres undefined)
7,1.38,CNCC(O)c1ccc(O)c(O)c1 (centres undefined)
8,9.38,O=C(O)c1cccc(Oc2ccccc2)c1
9,2.61,S=c1nc[nH]c2nc[nH]c12
10,3.16,CCN(CC)C(=O)N1CCN(C)CC1
11,5.28,CC(=O)Nc1ccc(S(=O)(=O)Nc2cc(C)on2)cc1
12,4.11,CN1CCN(CC(=O)N2c3ccccc3C(=O)Nc3cccnc32)CC1
13,8.8,CC(=O)OCC(=O)C1(O)CCC2C3CCC4=CC(=O)CCC4(C)C3C(O)CC21C (centres undefined)
14,5.24,CCN(CC)C(=O)Nc1ccc(OCC(O)CNC(C)(C)C)c(C(C)=O)c1 (centres undefined)
15,5.49,CC(C)NCC(O)COc1cccc2[nH]c3ccccc3c12 (centres undefined)
16,3.43,CNC(=C[N+](=O)[O-])NCCSCc1ccc(C[N+](C)(C)[O-])o1
17,5.59,Cc1cccc(C)c1OCC(C)N (centres undefined)
18,6.72,CC(C)(C)N1CCC(c2ccccc2)(c2ccccc2)CC1
19,6.98,CN(CCOc1ccc(CC2SC(=O)NC2=O)cc1)c1ccccn1 (centres undefined)
20,8.54,CN(C)CC(CN1c2ccccc2Sc2ccccc21)N(C)C (centres undefined)
21,5.59,CCNC(=O)c1ccc(OC)cc1
22,7.01,CN(C)CCC=C1c2ccccc2COc2ccccc21
23,9.24,CC=CC(=O)N(CC)c1ccccc1C
24,8.2,CCN(CC)C(=O)c1cccc(C)c1
25,6.89,CCN(CC)C(=O)C(C#N)=Cc1cc(O)c(O)c([N+](=O)[O-])c1
26,3.63,c1cnc2cc3c(cc2n1)C1CNCC3C1
27,7.99,CNCCCC1c2ccccc2C=Cc2ccccc21
28,8.04,CCN(CC)CCOCCOC(=O)C(CC)(CC)c1ccccc1

row,LC retention time [min],Compound
1,7.8,COc1ccc(CNC(=O)c2cc([N+](=O)[O-])ccc2NC(C)CO)cc1OC (centres undefined)
2,1.58,NCCc1cnc[nH]1
3,4.11,Cc1nc(NS(=O)(=O)c2ccc(N)cc2)oc1C
4,6.36,COCCOc1ccccc1S(=O)(=O)NC(=O)Nc1nc(OC)nc(OC)n1
5,6.71,C=CCc1ccccc1OCC(O)CNC(C)C (centres undefined)
6,5.44,O=S(=O)(O)c1ccc2ccccc2c1
7,6.08,CC1(C)OC2COC3(COS(N)(=O)=O)OC(C)(C)OC3C2O1 (centres undefined)
8,6.32,CN(C)CCN(Cc1cccs1)c1ccccc1
9,10.6,CC(O)C1C(=O)N2C(C(=O)O)=C(SC3CNC(C(=O)N(C)C)C3)C(C)C12 (centres undefined)
10,7.66,CC(C)OC(=O)Nc1ccc2nc(-c3cscn3)[nH]c2c1
11,6.14,CNCCCC(C#N)(c1ccc(OC)c(OC)c1)C(C)C (centres undefined)
12,7.89,CCc1cccc(C)c1N1C(=O)COCC1C (centres undefined)
13,7.94,CCOC(=O)C(CCc1ccccc1)NC1CCCN2CCCC(C(=O)O)N2C1=O (centres undefined)
14,8.26,CN1CC(=O)N2C(Cc3c([nH]c4ccccc34)C2c2ccc3c(c2)OCO3)C1=O (centres undefined)
15,5.36,COc1ccc2[nH]cc(CCNC(C)=O)c2c1
16,2.96,CNC(=C[N+](=O)[O-])NCCSCc1csc(CN(C)C)n1
17,10.3,CCCc1nc2c(C)cc(-c3nc4ccccc4n3C)cc2n1Cc1ccc(-c2ccccc2C(=O)O)cc1
18,3.14,CNC(=C[N+](=O)[O-])NCCSCc1ccc(CN(C)C)o1
19,7.95,O=C(OC1CN2CCC1CC2)N1CCc2ccccc2C1c1ccccc1 (centres undefined)
20,11,CCC(=C(c1ccccc1)c1ccc(OCCN(C)C)cc1)c1ccccc1
21,11.8,Cc1cccc(C)c1OCC(=O)NC(Cc1ccccc1)C(O)CC(Cc1ccccc1)NC(=O)C(C(C)C)N1CCCNC1=O (centres undefined)
22,8.8,CN1CCN(CCCN2c3ccccc3Sc3ccccc32)CC1
23,8.41,CCCCOc1cc(C(=O)NCCN(CC)CC)c2ccccc2n1
24,6.66,COC(=O)Nc1nc2ccc(S(=O)c3ccccc3)cc2[nH]1 (centres undefined)
25,11.3,CCCCOc1ccc(C(=O)OCCN(CC)CC)cc1
26,4.84,c1ccc2c(CC3=NCCN3)cccc2c1
27,14.2,COC1CC(OC2C(C)OC(OC3C(C)=CCC4CC(CC5(CCC(C)C(C(C)C)O5)O4)OC(=O)C4C=C(C)C(O)C5OCC(=CC=CC3C)C45O)CC2OC)OC(C)C1O (centres undefined)

# The next lines start with the molecule.
row,Compound,LC retention time [min]
1,COc1ccc2c(c1)C13CCCCC1C(C2)N(C)CC3 (centres undefined),6.51
2,CCCCCn1cc(C(=O)Cc2ccc(OC)cc2)c2ccccc21,11.6
3,COCCN(C(=O)CS(=O)(=O)O)c1c(C)cccc1C,5.54
4,CSc1ccc(CC(C)N)cc1 (centres undefined),5.24
5,CC(C)NCC(O)COc1ccc(CC(=O)O)cc1 (centres undefined),3.93
6,CCSc1cc(OC)c(CCN)cc1OC,5.88
7,CCNc1nc(NCC)nc(SC)n1,8.14
8,CC(=O)OCCC(SC(C)=O)=C(C)N(C=O)Cc1cnc(C)nc1N,4.46
9,CCn1cc(C(=O)O)c(=O)c2cc3c(cc21)OCO3,6.03
10,COc1ccccc1OCC(O)COC(N)=O (centres undefined),5.21
11,CCC(CO)NC(=O)C1C=C2c3cccc4[nH]cc(c34)CC2N(C)C1 (centres undefined),4.34
12,COCC(=O)N(c1c(C)cccc1C)C(C)C(=O)OC (centres undefined),8.22
13,COc1ccc2c3c1OC1C(O)C=CC4C(C2)N(C)CCC341 (centres undefined),3.4
14,Cc1ccc(C2(c3ccccc3)NC(=O)NC2=O)cc1 (centres undefined),8.12
15,CN1CCC23c4c5ccc(OC6OC(C(=O)O)C(O)C(O)C6O)c4OC2C(O)C=CC3C1C5 (centres undefined),1.63
16,COP(=S)(OC)Oc1ccc(S(C)=O)c(C)c1 (centres undefined),7.28
17,NS(=O)(=O)c1ccc(N2CCCCS2(=O)=O)cc1,4.11
18,CCOP(=S)(Oc1ccc(C#N)cc1)c1ccccc1 (centres undefined),10.9
19,CON=C(C(=O)OC)c1ccccc1COc1ccccc1C,10.8
20,CCCCCn1nc(C(=O)NC23CC4CC(CC(C4)C2)C3)c2ccccc21,14

row,Compound,LC retention time [min]
1,CC(N)Cc1ccccc1 (centres undefined),4.16
2,CC(C)=CC1C(C(=O)OCc2coc(Cc3ccccc3)c2)C1(C)C (centres undefined),13.6
3,COC12CCC3(CC1C(C)(O)C(C)(C)C)C1Cc4ccc(O)c5c4C3(CCN1CC1CC1)C2O5 (centres undefined),7.96
4,CCS(=O)(=O)CCSP(=O)(OC)OC,4.15
5,CC(N)C(O)c1ccccc1 (centres undefined),3.68
6,Cc1occc1C(=O)Nc1ccccc1,7.59
7,CCCCCn1cc(C(=O)c2cccc3ccccc23)c2ccc(OC)cc21,12.4
8,CNC(=O)Oc1cc(C)c(S(C)(=O)=O)c(C)c1,5.28
9,CN(Cc1cnc2nc(N)nc(N)c2n1)c1ccc(C(=O)NC(CCC(=O)O)C(=O)O)cc1 (centres undefined),3.96
10,CCCC(C(=O)c1ccc2ccccc2c1)N1CCCC1 (centres undefined),7.33
11,CCCCn1cc(C(=O)c2cccc3ccccc23)c2c(O)cccc21,12
12,CN1CCC23c4c5ccc(O)c4OC2C(=O)CCC3(O)C1C5 (centres undefined),2.75
13,COP(=S)(NC(C)C)Oc1ccccc1C(=O)OC(C)C (centres undefined),11.7
14,CCOC(=O)Nc1cccc(OC(=O)Nc2ccccc2)c1,8.57
15,CNC(=O)Oc1cccc2c1OC(C)(C)O2,7.02
16,CC(C)C1(C)N=C(c2nc3ccccc3cc2C(=O)O)NC1=O (centres undefined),6.1
17,CC(C)N1C(=O)N(c2ccccc2)CSC1=NC(C)(C)C,12.2
18,COP(=S)(OC)Oc1ccc(SC)c(C)c1,11
19,COP(=S)(OC)Oc1ccc(C#N)cc1,8.27
20,CCCCNC(=O)NS(=O)(=O)c1ccc(C)cc1,7.68

row,Compound,LC retention time [min]
1,CCc1cc(OC)c(CC(C)N)cc1OC (centres undefined),6.88
2,COP(=S)(OC)SCOC(C)=O,7.16
3,CCC1(c2ccc(N)cc2)CCC(=O)NC1=O (centres undefined),4.99
4,CCCCCCCC(C)(C)c1ccc(C2CCCC(O)C2)c(O)c1 (centres undefined),13.5
5,CCCCCn1nc(C(=O)Nc2cccc3ccccc23)c2ccccc21,13
6,CCOP(=S)(OCC)Oc1cc(-c2ccccc2)on1,11.3
7,NNC(N)=O,1.33
8,NNC(=O)c1ccncc1,2.18
9,O=C(O)CCCO,1.95
10,NS(=O)(=O)c1cc(C(=O)O)cc(N2CCCC2)c1Oc1ccccc1,7.17
11,CCCC(C(=O)c1ccc(C)cc1)N1CCCC1 (centres undefined),6.03
12,CCC(=O)C(CC(C)N(C)C)(c1ccccc1)c1ccccc1 (centres undefined),8.04
13,COC(=O)c1ccccc1CS(=O)(=O)NC(=O)Nc1nc(OC)cc(OC)n1,8.77
14,CNC(=O)Oc1cccc2c1OC(C)(C)C2,7.01
15,CCOc1cc(CC(=O)NC(CC(C)C)c2ccccc2N2CCCCC2)ccc1C(=O)O (centres undefined),11.9
16,CCOc1ccccc1C(N)=O,5.68
17,COc1cc(OC)nc(NC(=O)NS(=O)(=O)c2c(-c3nnn(C)n3)cnn2C)n1,7.62
18,Cc1cccc2sc3nncn3c12,5.93
19,CC=CCC1=C(C)C(OC(=O)C2C(C=C(C)C(=O)OC)C2(C)C)CC1=O (centres undefined),11.6
